Test results from patent US20070287693A1, “Benzamide Derivatives That Act Upon The Glucokinase Enzyme” (priority 2004, published 2007).

Experiment: Plasma protein binding by equilibrium dialysis
Type: in vitro ADME
Conditions: rat plasma, 37° C., pH 7.4, read-out: % free in plasma
Method: 3) Measurements of Plasma Protein Binding of Compounds
The plasma protein binding of compounds was measured using the equilibrium dialysis technique (W. Lindner et al, J. Chromatography, 1996, 677, 1-28). Compound was dialysed at a concentration of 20 μM for 18 hours at 37° C. with plasma and isotonic phosphate buffer pH 7.4 (1 ml of each in the dialysis cell). A Spectrum® 20-cell equilibrium dialyser was used together with Teflon, semi-micro dialysis cells and Spectra/Por®2 membrane discs with a molecular weight cut off 12-14000 Dalton, 47 mm (supplied by PerBio Science UK Ltd, Tattenhall, Cheshire). Plasma and buffer samples are removed following dialysis and analysed using HPLCUV/MS (high performance liquid chromatography with UV and mass spec detection) to give the % free level in plasma. [drawing 39]

fraction unbound at 18 h, 20 μM: 0.02
SMILES: CC[C@@H](CO)Oc1cc(Oc2ccc(C(=O)N3CCC3)cc2)cc(C(=O)Nc2ccn(C)n2)c1 [Example 13, 3-[4-(azetidin-1-ylcarbonyl)phenoxy]-5-{[(1S)-1-(hydroxymethyl)propyl]oxy}-N-(1-methyl-1H-pyrazol-3-yl)benzamide]
